From patent US8815882B2, “Pyrazole aminopyrimidine derivatives as LRRK2 modulators” (Genentech, Inc., priority 2010, dated 2014) come the findings set out here.

The target of the first test is T1, LRRK2 (Homo sapiens, UniProt Q5S007, G2019S).
T1 construct: purchased Invitrogen PV4882 (lot 567054A)
T1 sequence (Q5S007 whole entry G2019S): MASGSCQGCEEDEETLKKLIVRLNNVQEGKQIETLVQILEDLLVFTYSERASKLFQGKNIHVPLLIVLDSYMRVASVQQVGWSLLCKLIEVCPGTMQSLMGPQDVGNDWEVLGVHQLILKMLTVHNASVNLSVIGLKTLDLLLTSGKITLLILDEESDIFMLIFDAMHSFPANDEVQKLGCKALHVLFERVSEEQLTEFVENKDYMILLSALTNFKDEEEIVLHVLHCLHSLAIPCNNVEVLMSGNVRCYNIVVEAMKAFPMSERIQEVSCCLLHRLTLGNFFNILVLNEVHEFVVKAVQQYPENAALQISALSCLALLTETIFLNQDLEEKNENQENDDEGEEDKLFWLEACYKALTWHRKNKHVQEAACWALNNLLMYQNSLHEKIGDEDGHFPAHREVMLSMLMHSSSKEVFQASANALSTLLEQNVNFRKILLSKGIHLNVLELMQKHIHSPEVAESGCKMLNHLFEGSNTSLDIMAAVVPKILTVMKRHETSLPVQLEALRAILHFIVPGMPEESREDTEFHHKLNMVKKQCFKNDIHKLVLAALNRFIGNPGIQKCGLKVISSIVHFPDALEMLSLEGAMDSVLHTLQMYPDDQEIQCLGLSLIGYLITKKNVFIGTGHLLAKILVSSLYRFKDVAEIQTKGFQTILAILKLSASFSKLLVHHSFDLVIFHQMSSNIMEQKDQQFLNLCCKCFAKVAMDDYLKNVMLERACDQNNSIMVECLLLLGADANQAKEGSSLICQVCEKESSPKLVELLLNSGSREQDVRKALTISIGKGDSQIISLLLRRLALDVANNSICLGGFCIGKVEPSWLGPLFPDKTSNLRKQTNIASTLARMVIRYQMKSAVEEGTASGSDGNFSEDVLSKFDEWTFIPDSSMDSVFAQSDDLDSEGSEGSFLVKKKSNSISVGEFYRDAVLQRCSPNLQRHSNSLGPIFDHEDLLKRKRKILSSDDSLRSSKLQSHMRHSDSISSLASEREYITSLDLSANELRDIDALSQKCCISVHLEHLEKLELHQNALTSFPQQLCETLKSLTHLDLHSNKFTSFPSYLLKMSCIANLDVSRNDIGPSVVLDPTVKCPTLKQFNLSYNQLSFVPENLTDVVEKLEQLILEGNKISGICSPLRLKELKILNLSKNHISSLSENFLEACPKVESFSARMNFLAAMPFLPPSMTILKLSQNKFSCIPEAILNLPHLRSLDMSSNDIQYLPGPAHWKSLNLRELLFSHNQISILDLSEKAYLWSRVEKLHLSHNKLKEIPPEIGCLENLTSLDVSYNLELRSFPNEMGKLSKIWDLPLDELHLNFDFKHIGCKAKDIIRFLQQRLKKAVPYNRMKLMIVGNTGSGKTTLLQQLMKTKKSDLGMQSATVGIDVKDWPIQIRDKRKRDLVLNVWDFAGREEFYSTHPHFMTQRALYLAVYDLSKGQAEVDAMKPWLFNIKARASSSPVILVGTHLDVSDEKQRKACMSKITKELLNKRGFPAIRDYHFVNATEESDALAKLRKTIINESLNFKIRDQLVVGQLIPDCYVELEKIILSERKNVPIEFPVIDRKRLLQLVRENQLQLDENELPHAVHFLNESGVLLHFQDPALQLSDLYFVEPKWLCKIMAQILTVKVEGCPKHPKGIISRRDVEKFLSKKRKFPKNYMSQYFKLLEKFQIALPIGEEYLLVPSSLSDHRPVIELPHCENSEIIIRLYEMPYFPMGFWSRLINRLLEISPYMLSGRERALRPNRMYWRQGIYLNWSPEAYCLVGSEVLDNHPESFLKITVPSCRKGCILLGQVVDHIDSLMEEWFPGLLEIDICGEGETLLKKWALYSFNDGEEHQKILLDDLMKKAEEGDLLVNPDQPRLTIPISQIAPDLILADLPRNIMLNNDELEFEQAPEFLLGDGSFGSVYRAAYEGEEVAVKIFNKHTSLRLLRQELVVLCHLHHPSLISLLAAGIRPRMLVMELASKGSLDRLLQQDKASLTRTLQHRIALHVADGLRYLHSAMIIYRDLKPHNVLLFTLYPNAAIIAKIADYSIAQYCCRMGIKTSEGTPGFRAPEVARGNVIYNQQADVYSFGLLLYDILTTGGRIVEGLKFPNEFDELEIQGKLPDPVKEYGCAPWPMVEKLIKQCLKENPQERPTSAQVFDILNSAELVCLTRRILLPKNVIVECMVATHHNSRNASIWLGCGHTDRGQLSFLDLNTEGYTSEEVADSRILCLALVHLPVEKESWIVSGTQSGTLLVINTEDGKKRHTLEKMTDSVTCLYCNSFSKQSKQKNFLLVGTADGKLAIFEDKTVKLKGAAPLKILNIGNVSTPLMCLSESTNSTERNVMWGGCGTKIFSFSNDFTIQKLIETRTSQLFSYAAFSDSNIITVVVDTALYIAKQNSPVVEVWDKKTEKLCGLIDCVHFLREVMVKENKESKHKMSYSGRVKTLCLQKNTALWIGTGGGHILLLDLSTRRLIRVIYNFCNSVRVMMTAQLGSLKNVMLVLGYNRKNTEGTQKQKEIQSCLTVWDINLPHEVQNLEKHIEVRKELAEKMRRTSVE
Kind of test: In Vitro LRRK2 Assay (LabChip 3000, fluorescently-labeled peptide substrate, ATP). The test is classed as biochemical. The settings on record: Table 9; LRRK2 Ki (micromolar); read-out: LRRK2 Ki (KI). In a few lines: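 Read-out was LabChip capillary electrophoresis, resolving phospho- from non-phospho-peptide by fluorescence intensity. The kinase reaction combined enzyme, ATP, test compound and labeled peptide (4 μM working dilution) for 2 h in darkness before stop solution. Values were reported as Ki, from a tight-binding model with Et, S and Km, or as IC50 or percent inhibition.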
Turning to `CCn1ncc(Nc2ncc(C#N)c(OC)n2)c1C` [Example 377, 2-(1-ethyl-5-methyl-1H-pyrazol-4-ylamino)-4-methoxypyrimidine-5-carbonitrile], the Ki turned out to be 75 nM. Consider `CNc1nc(Nc2cnn(C3CCN(CC(F)(F)F)CC3)c2C)ncc1C#N` [Example 356, 2-(5-methyl-1-(1-(2,2,2-trifluoroethyl)piperidin-4-yl)-1H-pyrazol-4-ylamino)-4-(methylamino) pyrimidine-5-carbonitrile], for which the Ki amounted to 22.5 nM. On the same count and under the same terms, the figure for `CCn1ncc(Nc2ncc(C#N)c(NC)n2)c1C` [Example 351, 2-(1-ethyl-5-methyl-1H-pyrazol-4-ylamino)-4-(methylamino) pyrimidine-5-carbonitrile] is 9.7 nM.

Staying with this test, now noted: Table 10; LRRK2 Ki (micromolar); read-out: LRRK2 Ki (KI).
As for `CNC(=O)C(C)(C)n1cc(Nc2ncc(C(F)(F)F)c(NC3CC3)n2)c(C)n1` [Example 449, 2-[4-(4-Cyclopropylamino-5-trifluoromethyl-pyrimidin-2-ylamino)-3-methyl-pyrazol-1-yl]-N-methyl-isobutyramide], the Ki was 1.3 nM.

For `CNc1nc(Nc2cn(C(C)(C)C(=O)NC(C)(C)C)nc2C)ncc1C(F)(F)F` [Example 423, N-tert-butyl-2-methyl-2-(3-methyl-4-(4-(methylamino)-5-(trifluoromethyl)pyrimidin-2-ylamino)-1H-pyrazol-1-yl)propanamide], the Ki turned out to be 73 nM. As to `CNc1nc(Nc2cnn(C(C)(C)C#N)c2C)ncc1C(F)(F)F` [Example 401, 2-methyl-2-(5-methyl-4-(4-(methylamino)-5-(trifluoromethyl)pyrimidin-2-ylamino)-1H-pyrazol-1-yl)propanenitrile], the Ki stood at 0.7 nM.

Staying with this test, now noted: read-out: LRRK2 Ki (KI), Table 7.
For `COc1nc(Nc2cnn(-c3ccc(S(C)(=O)=O)cc3)c2C)ncc1Cl` [Example 60, 5-chloro-4-methoxy-N-(5-methyl-1-(4-(methylsulfonyl)phenyl)-1H-pyrazol-4-yl)pyrimidin-2-amine], the Ki stood at 15 nM. For the molecule `COc1nc(Nc2cnn(S(=O)(=O)C3CC3)c2C)ncc1Cl` [Example 70, 5-chloro-N-(1-(cyclopropyl-sulfonyl)-5-methyl-1H-pyrazol-4-yl)-4-methoxy-pyrimidin-2-amine], the Ki is 15 nM.

As to `COc1nc(Nc2cn(C3CCOCC3)nc2C)ncc1Cl` [Example 65, 5-chloro-4-methoxy-N-(3-methyl-1-(tetrahydro-2H-pyran-4-yl)-1H-pyrazol-4-yl)pyrimidin-2-amine], the Ki was found to be 2.9 nM. As for `CNc1nc(Nc2c(C)nn(C)c2C)ncc1C(F)(F)F` [Example 10, N^4-methyl-5-(trifluoromethyl)-N^2-(1,3,5-trimethyl-1H-pyrazol-4-yl)pyrimidinc-2,4-diamine], the Ki is 96 nM.

On to `COc1nc(Nc2cn(-c3ccc(C(=O)N(C)C)cc3)nc2C)ncc1Cl` [Example 81, 4-[4-(5-Chloro-4-methoxy-pyrimidin-2-ylamino)-3-methyl-pyrazol-1-yl]-N,N-dimethyl-benzamide], for which the Ki is 2.2 nM.

Staying with this test, now noted: read-out: LRRK2 Ki (KI), Table 8.
As to `CCNc1nc(Nc2cn(C(C)(C)c3nnc[nH]3)nc2C)ncc1C(F)(F)F` [Example 327, N4-Ethyl-N2-{3-methyl-1-[1-methyl-1-(4H-[1,2,4]triazol-3-yl)-ethyl]-1H-pyrazol-4-yl}-5-trifluoromethyl-pyrimidine-2,4-diamine], the Ki was 0.5 nM. The same measure, in the same setting: the figure for `CNc1nc(Nc2cn([C@@H]3CCN(C)C3)nc2C)ncc1C(F)(F)F` [Example 233, (R)-N4-methyl-N2-(3-methyl-1-(1-methylpyrrolidin-3-yl)-1H-pyrazol-4-yl)-5-(trifluoromethyl) pyrimidine-2,4-diamine] is 61 nM. `CCCCn1ncc(Nc2ncc(C(F)(F)F)c(NC)n2)c1C` [Example 127, N2-(1-butyl-5-methyl-1H-pyrazol-4-yl)-N4-methyl-5-(trifluoromethyl) pyrimidine-2,4-diamine]: the Ki amounted to 0.3 nM.

For the molecule `CCNc1nc(Nc2cn(CC3(C)COC3)nc2C)ncc1C(F)(F)F` [Example 144, N4-ethyl-N2-(3-methyl-1-((3-methyloxetan-3-yl)methyl)-1H-pyrazol-4-yl)-5-(trifluoromethyl) pyrimidine-2,4-diamine], the Ki came out at 0.9 nM. The same measure, in the same setting: the figure for `CCNc1nc(Nc2cn(S(=O)(=O)CC)nc2C)ncc1C(F)(F)F` [Example 243, N4-ethyl-N2-(1-(ethylsulfonyl)-3-methyl-1H-pyrazol-4-yl)-5-(trifluoromethyl) pyrimidine-2,4-diamine] is 0.5 nM; for `CCCn1cc(Nc2ncc(C(F)(F)F)c(NC)n2)c(C)n1` [Example 120, N4-methyl-N2-(3-methyl-1-propyl-1H-pyrazol-4-yl)-5-(trifluoromethyl) pyrimidine-2,4-diamine] it is 0.6 nM. On to `CNc1nc(Nc2cn(Cc3cccnn3)nc2C)ncc1C(F)(F)F` [Example 310, N4-Methyl-N2-(3-methyl-1-pyridazin-3-ylmethyl-1H-pyrazol-4-yl)-5-trifluoromethyl-pyrimidine-2,4-diamine], for which the Ki stood at 9.3 nM.

With `CNc1nc(Nc2cn(-c3ccc(S(C)(=O)=O)cc3)nc2C)ncc1C(F)(F)F` [Example 124, N4-methyl-N2-(3-methyl-1-(4-(methylsulfonyl)phenyl)-1H-pyrazol-4-yl)-5-(trifluoromethyl) pyrimidine-2,4-diamine], the Ki stood at 0.3 nM. Turning to `CCNc1nc(Nc2cn(S(=O)(=O)C(C)C)nc2C)ncc1C(F)(F)F` [Example 216, N4-ethyl-N2-(1-(isopropylsulfonyl)-3-methyl-1H-pyrazol-4-yl)-5-(trifluoromethyl) pyrimidine-2,4-diamine], the Ki worked out at 3.9 nM. The same measure, in the same setting: the figure for `CNc1nc(Nc2cn(C(C)(C)c3nnc[nH]3)nc2C)ncc1C(F)(F)F` [Example 332, N4-Methyl-N2-{3-methyl-1-[1-methyl-1-(4H-[1,2,4]triazol-3-yl)-ethyl]-1H-pyrazol-4-yl}-5-trifluoromethyl-pyrimidine-2,4-diamine] is 2.3 nM; for `CCNc1nc(Nc2cn(C3CCN(CC4OCCO4)C3)nc2C)ncc1C(F)(F)F` (centres unmarked) [Example 322, N2-[1-(1-[1,3]Dioxolan-2-ylmethyl-pyrrolidin-3-yl)-3-methyl-1H-pyrazol-4-yl]-N4-ethyl-5-trifluoromethyl-pyrimidine-2,4-diamine] it is 4.9 nM. Consider `CNc1nc(Nc2cn(C[C@@H](C)OC)nc2C)ncc1C(F)(F)F` [Example 270, N2-[1-((R)-2-Methoxy-propyl)-3-methyl-1H-pyrazol-4-yl]-N4-methyl-5-trifluoromethyl-pyrimidine-2,4-diamine], for which the Ki came out at 17 nM.

Regarding `CCNc1nc(Nc2cnn(C3CCN(C4COC4)CC3F)c2Cl)ncc1C(F)(F)F` (centres unmarked) [Example 306, N2-[5-Chloro-1-(3-fluoro-1-oxetan-3-yl-piperidin-4-yl)-1H-pyrazol-4-yl]-N4-ethyl-5-trifluoromethyl-pyrimidine-2,4-diamine], the Ki worked out at 0.6 nM.

Turning to `CNc1nc(Nc2cn(S(C)(=O)=O)nc2C)ncc1C(F)(F)F` [Example 102, N4-methyl-N2-(3-methyl-1-(methylsulfonyl)-1H-pyrazol-4-yl)-5-(trifluoromethyl) pyrimidine-2,4-diamine], the Ki was found to be 2.9 nM. For the molecule `CNc1nc(Nc2cn(C3CCCC3OC)nc2C)ncc1C(F)(F)F` (centres unmarked) [Example 188, N2-(1-(2-methoxycyclo-pentyl)-3-methyl-1H-pyrazol-4-yl)-N4-methyl-5-(trifluoromethyl) pyrimidine-2,4-diamine], the Ki is 12 nM.

By Ki is commonly meant the equilibrium dissociation constant of an inhibitor or competing ligand from its target.
